Source: patent US10561703B2, “Method of modulating sex hormone levels using a sex hormone secretion modulator” (GEMVAX & KAEL CO., LTD., priority 2013, dated 2020)

Test system: WPMY-1
Experiment: Cell proliferation (CCK-8) in prostate mesenchymal cell line
Assay type: cell-based
Protocol: When testosterone is injected into the body, testosterone becomes dihydrotestosterone (DHT) due to 5α-reductase, which stimulates the proliferation of prostate cells and induces benign prostatatic hyperplasia (BPH). Based on these facts, a PEP-1 (GV1001) injection experiment was performed for the inhibition of proliferation of prostatic cells in the following manner: The cell lines were mesenchymal cell lines (WPMY-1) and epithelial cell lines (RWPE-1) of prostates obtained from BPH animal models. […] Observation of changes in the proliferation was performed by suctioning a culture medium, adding 10 μL of CCK-8 solution to each well, and measuring an optical density at 450 nm for 1 hour to about 4 hours.

EARPALLTSRLRFIPK (listed as Homo sapiens) [PEP-1, hormone secretion modulator / GnRH analog]
Cell proliferation (optical density at 450 nm) versus untreated cells (WPMY-1, 100 and 200 μM GV1001, no DHT): did not show a substantial difference in optical densities
Inhibition of DHT-induced cell proliferation (WPMY-1, 100 and 200 μM GV1001 with 25 nM DHT): substantial inhibition effects on proliferation
